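Protocol summary: plate cells (96-well), add compound at 5 concentrations, incubate 48 h, interpolate endpoints linearly. Abbreviation: GI50, concentration required for 50% inhibition of growth.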 The source made the active and inactive calls. Cut-off read from the data, not from the text of the source: active = GI50 up to about 1.1 µM and inactive = higher.
What was measured:
Assay in all cases: NCI anticancer screen, dose series, 48 h
[1] = system: NCI-H522
[2] = system: LOX IMVI
[3] = system: OVCAR-8
[4] = system: OVCAR-5
[5] = system: A498
[6] = system: NCI-H460
[7] = system: MOLT-4
[8] = system: HCT-15
[9] = system: M14
[10] = system: ACHN
[11] = system: SF-268
[12] = system: K562
[13] = system: HCC 2998
[14] = system: HOP-62
[15] = system: OVCAR-4
[16] = system: SK-OV-3
[17] = system: U-251
[18] = system: RPMI-8226

| Compound | GI50 [1] | GI50 [2] | GI50 [3] | GI50 [4] | GI50 [5] | GI50 [6] | GI50 [7] | GI50 [8] [µM] | GI50 [9] | GI50 [10] | GI50 [11] | GI50 [12] | GI50 [13] | GI50 [14] | GI50 [15] | GI50 [16] | GI50 [17] | GI50 [18] |
| --- | --- | --- | --- | --- | --- | --- | --- | --- | --- | --- | --- | --- | --- | --- | --- | --- | --- | --- |
| O=C(/C=C1\Nc2ccccc2C(=O)N1c1ccccc1Cl)c1ccccc1 | > 100 µM (inactive) | > 100 µM (inactive) | > 100 µM (inactive) | > 100 µM (inactive) | > 100 µM (inactive) | > 100 µM (inactive) | 76.4 µM (inactive) | > 100 | > 100 µM (inactive) | > 100 µM (inactive) | > 100 µM (inactive) | 87.5 µM (inactive) | > 100 µM (inactive) | > 100 µM (inactive) | 67.5 µM (inactive) | > 100 µM (inactive) | > 100 µM (inactive) | – |
| CCNc1nc2c(=O)n(C)c(=O)n(C)c2s1 | > 100 µM (inactive) | > 100 µM (inactive) | > 100 µM (inactive) | > 100 µM (inactive) | > 100 µM (inactive) | > 100 µM (inactive) | > 100 µM (inactive) | > 100 | > 100 µM (inactive) | > 100 µM (inactive) | > 100 µM (inactive) | > 100 µM (inactive) | > 100 µM (inactive) | > 100 µM (inactive) | > 100 µM (inactive) | > 100 µM (inactive) | > 100 µM (inactive) | > 100 µM (inactive) |
| O=C(/C=C/c1ccc(OCCCOc2ccc(/C=C/C(=O)c3ccc(Cl)cc3)cc2)cc1)c1ccc(Cl)cc1 | > 100 µM (inactive) | > 100 µM (inactive) | > 100 µM (inactive) | > 100 µM (inactive) | – | > 100 µM (inactive) | > 100 µM (inactive) | > 100 | > 100 µM (inactive) | > 100 µM (inactive) | > 100 µM (inactive) | > 100 µM (inactive) | > 100 µM (inactive) | > 100 µM (inactive) | > 100 µM (inactive) | > 100 µM (inactive) | > 100 µM (inactive) | > 100 µM (inactive) |
| CC1=CC(=O)N(c2c(C)cccc2Cl)C(C)N1 (stereo not drawn) | > 100 µM (inactive) | > 100 µM (inactive) | > 100 µM (inactive) | > 100 µM (inactive) | > 100 µM (inactive) | > 100 µM (inactive) | > 100 µM (inactive) | > 100 | > 100 µM (inactive) | > 100 µM (inactive) | > 100 µM (inactive) | > 100 µM (inactive) | > 100 µM (inactive) | > 100 µM (inactive) | > 100 µM (inactive) | > 100 µM (inactive) | > 100 µM (inactive) | – |
| C=C1C=CC2(Br)OC3CC(C)(Cl)C(Br)CC13C2(C)C (stereo not drawn) | 15.4 µM (inactive) | 18.9 µM (inactive) | 30.7 µM (inactive) | 17.1 µM (inactive) | 22.3 µM (inactive) | 22 µM (inactive) | 16.9 µM (inactive) | 23 | 21.2 µM (inactive) | 23.6 µM (inactive) | 30.1 µM (inactive) | 17.9 µM (inactive) | 20.4 µM (inactive) | 23.1 µM (inactive) | 30.1 µM (inactive) | 30.5 µM (inactive) | 18.8 µM (inactive) | 23.2 µM (inactive) |
| COc1cc(C(O)C(=O)c2nc3ccc([N+](=O)[O-])cc3nc2O)ccc1O (stereo not drawn) | 18.8 µM (inactive) | 40.1 µM (inactive) | > 100 µM (inactive) | > 100 µM (inactive) | 34.6 µM (inactive) | > 100 µM (inactive) | > 100 µM (inactive) | > 100 | > 100 µM (inactive) | 54.2 µM (inactive) | > 100 µM (inactive) | 57.1 µM (inactive) | 74.1 µM (inactive) | > 100 µM (inactive) | > 100 µM (inactive) | > 100 µM (inactive) | > 100 µM (inactive) | 77.3 µM (inactive) |
| Cc1ccc(C)c(NC(=O)/C(=N\NC(N)=S)C(C#N)c2ccccc2)c1 (stereo not drawn) | > 100 µM (inactive) | – | > 100 µM (inactive) | > 100 µM (inactive) | > 100 µM (inactive) | > 100 µM (inactive) | > 100 µM (inactive) | > 100 | > 100 µM (inactive) | > 100 µM (inactive) | > 100 µM (inactive) | > 100 µM (inactive) | > 100 µM (inactive) | > 100 µM (inactive) | > 100 µM (inactive) | > 100 µM (inactive) | > 100 µM (inactive) | > 100 µM (inactive) |
| O=C(c1ccccc1)C(c1ccccc1)C1(O)C(=O)Nc2ccc([N+](=O)[O-])cc21 (stereo not drawn) | 74 µM (inactive) | 69.7 µM (inactive) | > 100 µM (inactive) | > 100 µM (inactive) | > 100 µM (inactive) | > 100 µM (inactive) | 83.2 µM (inactive) | > 100 | > 100 µM (inactive) | 33 µM (inactive) | > 100 µM (inactive) | 42.7 µM (inactive) | > 100 µM (inactive) | > 100 µM (inactive) | 64.6 µM (inactive) | 19.4 µM (inactive) | > 100 µM (inactive) | 37.7 µM (inactive) |
| COc1cccc(NC(=O)C(C)(C)C)c1C=O | 55.2 µM (inactive) | 46.1 µM (inactive) | 57.9 µM (inactive) | 62.5 µM (inactive) | > 100 µM (inactive) | > 100 µM (inactive) | 31 µM (inactive) | 35.4 | 70.8 µM (inactive) | 56.2 µM (inactive) | 47.5 µM (inactive) | 26.9 µM (inactive) | 92 µM (inactive) | > 100 µM (inactive) | 46.1 µM (inactive) | 82.8 µM (inactive) | 36.6 µM (inactive) | 19.4 µM (inactive) |
| O=C(Nc1cc(Cl)c(Cl)cc1Cl)C(=O)C1C(=O)NC(=S)NC1=O | > 100 µM (inactive) | > 100 µM (inactive) | > 100 µM (inactive) | > 100 µM (inactive) | > 100 µM (inactive) | > 100 µM (inactive) | > 100 µM (inactive) | > 100 | > 100 µM (inactive) | > 100 µM (inactive) | > 100 µM (inactive) | > 100 µM (inactive) | > 100 µM (inactive) | > 100 µM (inactive) | > 100 µM (inactive) | > 100 µM (inactive) | > 100 µM (inactive) | > 100 µM (inactive) |
| CSC(=S)NNC(=O)c1ccncc1 | 16.9 µM (inactive) | 16.8 µM (inactive) | 19.8 µM (inactive) | 23.9 µM (inactive) | 70 µM (inactive) | 46.6 µM (inactive) | 23.2 µM (inactive) | 15 | 19 µM (inactive) | 18.1 µM (inactive) | 21.6 µM (inactive) | 19.2 µM (inactive) | 23.6 µM (inactive) | 20.8 µM (inactive) | – | 28.8 µM (inactive) | 22.5 µM (inactive) | 22.3 µM (inactive) |
| O=[N+]([O-])c1cc(C(F)(F)F)cc([N+](=O)[O-])c1CCl | 0.328 µM (active) | 0.0826 µM (active) | 2.14 µM (inactive) | 5.3 µM (inactive) | 18.6 µM (inactive) | 5.78 µM (inactive) | 0.248 µM (active) | 1.58 | 0.53 µM (active) | 14.5 µM (inactive) | 4.09 µM (inactive) | 0.18 µM (active) | – | 16.1 µM (inactive) | 1.63 µM (inactive) | 5.73 µM (inactive) | 3.61 µM (inactive) | 1.16 µM (inactive) |
| C#CCNC(=O)NCCCCC(NC(=O)OCc1ccccc1)C(=O)OCc1ccccc1 (stereo not drawn) | 22.3 µM (inactive) | 39.1 µM (inactive) | 48.4 µM (inactive) | > 100 µM (inactive) | > 100 µM (inactive) | 52.2 µM (inactive) | 22.2 µM (inactive) | > 86.5 | 37.6 µM (inactive) | 27.7 µM (inactive) | – | > 66.2 µM (inactive) | 37.9 µM (inactive) | – | > 78.3 µM (inactive) | > 100 µM (inactive) | > 64.6 µM (inactive) | 21.2 µM (inactive) |
| COC(OC)C(C)CC(=O)N(C)C (stereo not drawn) | – | > 100 µM (inactive) | > 100 µM (inactive) | > 100 µM (inactive) | > 100 µM (inactive) | > 100 µM (inactive) | > 100 µM (inactive) | > 100 | > 100 µM (inactive) | > 100 µM (inactive) | > 100 µM (inactive) | > 100 µM (inactive) | > 100 µM (inactive) | > 100 µM (inactive) | > 100 µM (inactive) | > 100 µM (inactive) | > 100 µM (inactive) | > 100 µM (inactive) |
| COc1cccc(NC(=O)C(=O)C2C=CCS2(=O)=O)c1 (stereo not drawn) | > 100 µM (inactive) | > 100 µM (inactive) | 53.8 µM (inactive) | > 100 µM (inactive) | > 100 µM (inactive) | > 100 µM (inactive) | > 100 µM (inactive) | > 100 | > 100 µM (inactive) | > 100 µM (inactive) | > 100 µM (inactive) | > 100 µM (inactive) | > 100 µM (inactive) | > 100 µM (inactive) | > 100 µM (inactive) | > 100 µM (inactive) | > 100 µM (inactive) | > 100 µM (inactive) |
| NC1=NC(=O)C(CC(=O)Nc2ccc(Cl)cc2Cl)S1 (stereo not drawn) | – | > 100 µM (inactive) | > 100 µM (inactive) | > 100 µM (inactive) | 57.4 µM (inactive) | > 100 µM (inactive) | 48.4 µM (inactive) | > 100 | > 100 µM (inactive) | > 100 µM (inactive) | > 100 µM (inactive) | > 100 µM (inactive) | > 100 µM (inactive) | > 100 µM (inactive) | > 100 µM (inactive) | > 100 µM (inactive) | > 100 µM (inactive) | > 100 µM (inactive) |

Reference: ChEMBL document CHEMBL1201862, “PubChem BioAssay data set” (2004)
